Data: patent publication US6710044B2, “Technical field” (NeuroSearch A/S, priority 1996, dated 2004)
Where “and” joins values, the source holds several entries; their conditions need not be identical. Equal values may be shown once.

Row | Compound | melting point
1 | CN1CCCC(c2cccc(-n3cnc4cc(-c5ccoc5)ccc43)c2)C1 (centres unmarked) | 96 to 97 °C
2 | CN1CCCC(c2cccc(-n3cnc4cc(C#N)ccc43)c2)C1.Cl (centres unmarked) | 158 to 160 °C
3 | CCOC(=O)c1cccc(-n2cnc3cc(-c4ccoc4)ccc32)c1 | 87 to 89 °C
4 | CCOC(=O)c1cccc(-n2cnc3cc(-c4ccccc4)ccc32)c1 | 122 to 123 °C
5 | COC(=O)C(C)(C)ON=C(C)c1ccc2c(c1)ncn2-c1cccc(C2CCCN(C)C2)c1 (centres unmarked) | 113 to 116 °C and 113 to 115 °C
6 | CCON=C(C)c1ccc2c(c1)ncn2-c1cccc(N2CCN(C)CC2)c1.Cl | 62 to 63 °C
7 | CCCOC(=O)c1ccc2c(c1)ncn2-c1cccc(N2CCCC2)c1 | 170 to 172 °C
8 | CCOC(=O)Cc1ccc2c(c1)ncn2-c1cccc(N2CCN(C)CC2)c1.Cl | 180 to 182 °C
9 | CC(=O)c1ccc2c(c1)ncn2-c1cccc(C(=NOC(C)C)OCc2ccccn2)c1 [compound 5a3, 5-Acetyl-1-(3-(2-picolyloxycarbonyl)phenyl)benzimidazole O-i-propyl oxime] | 104 to 106 °C
10 | CCOC(=O)CN1CCN(c2cccc(-n3cnc4cc(-c5ccoc5)ccc43)c2)CC1 | 110 to 112 °C
11 | CN1CCN(c2cccc(-n3cnc4cc(C#N)ccc43)c2)CC1 | 177 to 179 °C
12 | CCON=C(CC1CCN(c2cccc(-n3cnc4cc(C(C)=O)ccc43)c2)CC1)OCC [compound 5d2, 5-Acetyl-1-(3-(4-(ethoxycarbonylmethyl)piperidin-1-yl)phenyl)benzimidazole O-ethyl oxime] | 119 to 120 °C
13 | N#Cc1ccc2c(c1)ncn2-c1cccc(N2CCCCC2)c1 | 106 to 108 °C
14 | CCOC(=O)CON=C(C)c1ccc2c(c1)ncn2-c1cccc(C2CCCN(C)C2)c1.Cl (centres unmarked) | 73 to 75 °C
15 | COC(=O)C=CN1CCN(c2cccc(-n3cnc4cc(-c5ccoc5)ccc43)c2)CC1 | 131 to 133 °C
16 | CCCON=C(CN1CCN(c2cccc(-n3cnc4cc(C(C)=O)ccc43)c2)CC1)OC | 120 to 122 °C
17 | CCOC(=O)C=Cc1ccc2c(c1)ncn2-c1cccc(N2CCCCC2)c1 | 85 to 87 °C
18 | CC(=O)c1ccc2c(c1)ncn2-c1cccc(N2CCN(C(C)=NO)CC2)c1 | 240 to 241 °C
19 | COC(=O)c1cccc(-n2cnc3cc(-c4ccno4)ccc32)c1 | 190 to 191 °C
20 | CCON=C(C)c1ccc2c(c1)ncn2-c1cccc(N2CCCCC2)c1 | 88 to 89 °C

Row | Compound | melting point
21 | ON=Cc1ccc2c(c1)ncn2-c1cccc(N2CCCC2)c1 | 242 to 244 °C
22 | CCOC(=O)c1cccc(-n2cnc3cc(C4CCOC4)ccc32)c1.Cl (centres unmarked) | 168 to 171 °C
23 | CC(C)(C)OC(=O)N1CCN(c2cccc(-n3cnc4cc(-c5ccoc5)ccc43)c2)CC1 | 162 to 164 °C
24 | COC(=O)c1ccc2c(c1)ncn2-c1cccc(C2CN(C(C)=O)CCN2)c1 (centres unmarked) | 189 to 191 °C
25 | COC(=O)c1ccc2c(c1)ncn2-c1cccc(N2CCN(C)CC2)c1 | 119 to 121 °C
26 | Cl.O=C(OCc1cccnc1)c1cccc(-n2cnc3cc(-c4ccccc4)ccc32)c1 | 195 to 197 °C
27 | CN1CCN(c2cccc(-n3cnc4cc(C=NO)ccc43)c2)CC1 | 224 to 227 °C
28 | CN1CCCC(c2cccc(-n3cnc4cc(C(=O)OCC5CC5)ccc43)c2)C1 (centres unmarked) | 111 to 113 °C
29 | CC(C)ON=Cc1ccc2c(c1)ncn2-c1cccc(N2CCCCC2)c1 | 127 to 128 °C
30 | CCOC(CN1CCN(c2cccc(-n3cnc4cc(C(C)=O)ccc43)c2)CC1)=NO | 154 to 156 °C
31 | CC(=NOC(C)C)c1ccc2c(c1)ncn2-c1cccc(C2CCCN(C)C2)c1.Cl (centres unmarked) | 48 to 55 °C
32 | COC(=O)C=Cc1ccc2c(c1)ncn2-c1cccc(N2CCN(C)CC2)c1 | 138 to 140 °C
33 | CCON=C(C)c1ccc2c(c1)ncn2-c1cccc(N2CCCC2)c1 | 118 to 120 °C
34 | CC(=O)c1ccc2c(c1)ncn2-c1cccc(C(=NOC(C)C)OC2CCCN(C)C2)c1 (centres unmarked) | 83 to 84 °C
35 | CCOC(=O)c1ccc2c(c1)ncn2-c1cccc(N2CCN(CCO)CC2)c1.Cl | 233 to 236 °C
36 | COC(=O)CN1CCN(c2cccc(-n3cnc4cc(-c5ccoc5)ccc43)c2)CC1 | 124 to 125 °C
37 | CN1CCN(c2cccc(-n3cnc4cc(-c5ccccc5)ccc43)c2)CC1 | 131 to 132 °C
38 | CN1CCCC(c2cccc(-n3cnc4cc(C(C)(C)C)ccc43)c2)C1.Cl (centres unmarked) | 200 °C
39 | CC(=NOC(C)C)c1ccc2c(c1)ncn2-c1cccc(N2CCN(CCO)CC2)c1.Cl | 165 to 169 °C
40 | CCOC(=O)C(=CN1CCN(c2cccc(-n3cnc4cc(C(C)=O)ccc43)c2)CC1)C(=NOC(C)C)OCC | 128 to 129 °C

Row | Compound | melting point
41 | CN1CCN(c2cccc(-n3cnc4cc(-c5ccoc5)ccc43)c2)CC1 | 129 to 130 °C
42 | CC(=O)c1ccc2c(c1)ncn2-c1cccc(N2CCN(C(C)=NOC(C)C)CC2)c1.Cl | 160 to 163 °C
43 | COC(=O)CON=C(C)c1ccc2c(c1)ncn2-c1cccc(C2CCCN(C)C2)c1 (centres unmarked) | 104 to 106 °C
44 | CCOC(=O)c1ccc2c(c1)ncn2-c1cccc(N2CCN(C)CC2)c1 | 86 to 87 °C
45 | CN1CCCC(c2cccc(-n3cnc4cc(-c5ccccc5)ccc43)c2)C1 (centres unmarked) | 42 to 44 °C
46 | COC(=O)C(C)(C)ON=Cc1ccc2c(c1)ncn2-c1cccc(N2CCN(C)CC2)c1.Cl | 199 to 201 °C
47 | CN1CCCC(OC(=O)c2cccc(-n3cnc4cc(-c5ccccc5)ccc43)c2)C1.Cl (centres unmarked) | 180 to 191 °C
48 | CC(=O)c1ccc2c(c1)ncn2-c1cccc(C(=NOC(C)C)OC2CCN(C)CC2)c1 | 106 to 107 °C
49 | CN1CCC(OC(=O)c2cccc(-n3cnc4cc(-c5ccccc5)ccc43)c2)CC1.Cl | 187 to 188 °C
50 | COC(=O)CON=C(C)N1CCN(c2cccc(-n3cnc4cc(C(C)=O)ccc43)c2)CC1 | 137 to 139 °C
51 | CN1CCCC(c2cccc(-n3cnc4cc(-c5nc(C6CC6)no5)ccc43)c2)C1.Cl (centres unmarked) | 184 to 190 °C
52 | CC(C)OC(=O)c1ccc2c(c1)ncn2-c1cccc(N2CCN(C)CC2)c1 | 110 to 111 °C
53 | CCOC(=O)CN1CCN(c2cccc(-n3cnc4cc(C(=O)OCC)ccc43)c2)CC1.Cl | 196 to 200 °C
54 | COC(=O)C(C)(C)ON=C(C)N1CCN(c2cccc(-n3cnc4cc(C(C)=O)ccc43)c2)CC1 | 119 to 120 °C
55 | CC(C)OC(=O)c1ccc2c(c1)ncn2-c1cccc(N2CCCCC2)c1 | 160 to 161 °C
56 | ON=Cc1ccc2c(c1)ncn2-c1cccc(N2CCCCC2)c1 | 213 to 214 °C
57 | CCOC(=O)c1ccc2c(c1)ncn2-c1cccc(N2CCN(C(C)=O)CC2)c1 | 155 to 156 °C
58 | CON=Cc1ccc2c(c1)ncn2-c1cccc(N2CCCCC2)c1 | 107 to 108 °C
59 | CCOC(=O)C=Cc1ccc2c(c1)ncn2-c1cccc(N2CCN(C)CC2)c1 | 133 to 134 °C
